pIC50: −log10 of the molar value.
target: T1, Acid ceramidase (Homo sapiens, UniProt Q13510); assay: Acid ceramidase assay (AC in vitro IC50); format: biochemical; settings: Acid ceramidase assay data of example compounds
T1 sequence (Q13510 22-395): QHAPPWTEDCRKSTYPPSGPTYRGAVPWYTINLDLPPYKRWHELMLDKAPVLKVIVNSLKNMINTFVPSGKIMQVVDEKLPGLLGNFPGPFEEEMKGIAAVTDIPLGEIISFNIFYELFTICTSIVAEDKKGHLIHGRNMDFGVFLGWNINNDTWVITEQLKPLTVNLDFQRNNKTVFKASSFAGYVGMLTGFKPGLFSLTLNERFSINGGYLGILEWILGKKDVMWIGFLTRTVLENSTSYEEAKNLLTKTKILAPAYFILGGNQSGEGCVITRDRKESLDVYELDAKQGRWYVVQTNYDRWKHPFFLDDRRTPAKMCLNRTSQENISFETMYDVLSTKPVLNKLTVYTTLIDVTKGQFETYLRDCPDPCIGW

| Structure (SMILES) | pIC50 |
| --- | --- |
| CS(=N)(=O)c1ccc(COc2ccc(-c3cn(C(=O)NCC4CCN(c5ccccc5)C4)cn3)cc2)cc1 (centres unmarked) [AC2020601-0452, 4-(4-((4-(S-methylsulfonimidoyl)benzyl)oxy)phenyl)-N-((1-phenylpyrrolidin-3-yl)methyl)-1H-imidazole-1-carboxamide] | > 6.52 |
| N#CCS(=O)(=O)c1ccc(COc2ccc(-c3cn(C(=O)NCC4CCN(c5ccccc5)C4)cn3)cc2)cc1 (centres unmarked) [AC2020601-0507, 4-(4-(4-(cyanomethylsulfonyl)benzyloxy)phenyl)-N-((1-phenylpyrrolidin-3-yl)methyl)-1H-imidazole-1-carboxamide] | > 6.52 |

The remaining lines, values ahead:

| pIC50 | Structure (SMILES) |
| --- | --- |
| > 6.52 | CN1CCN(c2cccc(COc3ccc(-c4cn(C(=O)NCC5CN(c6ccccc6)C5)cn4)cc3)c2)CC1=O [AC2020601-0449, 4-(4-(3-(4-methyl-3-oxopiperazin-1-yl)benzyloxy)phenyl)-N-((1-phenylazetidin-3-yl)methyl)-1H-imidazole-1-carboxamide] |
| > 6.52 | CS(=O)(=O)c1ccc(COc2ccc(-c3cn(C(=O)NCCCCc4ccccc4)cn3)cc2)cc1 [AC2020601-0243, 4-(4-((4-(methylsulfonyl)benzyl)oxy)phenyl)-N-(4-phenylbutyl)-1H-imidazole-1-carboxamide] |
| > 6.52 | NS(=O)(=O)c1ccc(COc2ccc(-c3cn(C(=O)NCCCOc4ccccc4)cn3)cc2)cc1 [AC2020601-0324] |
